Results: publication PMC10244445, “Molecular basis for the recognition of 24-(S)-hydroxycholesterol by integrin αvβ3” (Scientific Reports, 2023)
Read-outs that look alike come from different tables or passages of the source.

Biological target: T1, integrin αvβ3 (Homo sapiens, UniProt P05106+P06756)
T1 construct: gene ITGAV; purified human αvβ3 Integrin; with integrin αv subunit (ITGAV, P06756)
Assay: SPR (Biacore S200, integrin immobilized on CM5 chip, steady-state model)
Format: binding

T1 sequence (P06756 31-889): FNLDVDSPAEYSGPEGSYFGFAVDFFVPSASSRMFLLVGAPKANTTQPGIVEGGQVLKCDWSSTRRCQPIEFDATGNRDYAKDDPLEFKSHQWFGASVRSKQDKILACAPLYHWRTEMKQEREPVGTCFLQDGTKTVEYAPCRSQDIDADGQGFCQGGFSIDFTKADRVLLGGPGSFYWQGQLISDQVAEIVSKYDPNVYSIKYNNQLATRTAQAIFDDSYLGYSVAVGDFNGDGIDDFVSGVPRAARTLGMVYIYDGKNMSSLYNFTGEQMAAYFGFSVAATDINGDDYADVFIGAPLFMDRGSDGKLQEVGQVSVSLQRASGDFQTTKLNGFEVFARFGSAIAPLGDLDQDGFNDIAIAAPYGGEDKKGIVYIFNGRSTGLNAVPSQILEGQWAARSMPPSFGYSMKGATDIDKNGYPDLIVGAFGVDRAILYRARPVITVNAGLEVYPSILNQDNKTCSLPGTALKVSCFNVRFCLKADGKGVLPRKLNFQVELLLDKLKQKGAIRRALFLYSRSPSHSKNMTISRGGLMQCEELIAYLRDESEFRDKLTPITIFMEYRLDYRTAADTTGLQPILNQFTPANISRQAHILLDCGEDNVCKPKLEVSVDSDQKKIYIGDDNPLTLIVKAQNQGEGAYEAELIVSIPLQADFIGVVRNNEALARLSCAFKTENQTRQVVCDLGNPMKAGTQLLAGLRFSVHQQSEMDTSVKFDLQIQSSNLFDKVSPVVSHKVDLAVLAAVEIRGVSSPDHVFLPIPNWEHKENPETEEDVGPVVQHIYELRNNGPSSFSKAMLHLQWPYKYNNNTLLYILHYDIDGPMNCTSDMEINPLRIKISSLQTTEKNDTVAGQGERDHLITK
T1 sequence (P06756 891-1048): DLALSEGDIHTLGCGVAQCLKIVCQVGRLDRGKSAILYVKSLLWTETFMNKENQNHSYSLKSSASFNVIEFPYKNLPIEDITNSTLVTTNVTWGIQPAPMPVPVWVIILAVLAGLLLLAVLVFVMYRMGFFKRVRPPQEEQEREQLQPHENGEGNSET
T1 sequence (P05106 27-788): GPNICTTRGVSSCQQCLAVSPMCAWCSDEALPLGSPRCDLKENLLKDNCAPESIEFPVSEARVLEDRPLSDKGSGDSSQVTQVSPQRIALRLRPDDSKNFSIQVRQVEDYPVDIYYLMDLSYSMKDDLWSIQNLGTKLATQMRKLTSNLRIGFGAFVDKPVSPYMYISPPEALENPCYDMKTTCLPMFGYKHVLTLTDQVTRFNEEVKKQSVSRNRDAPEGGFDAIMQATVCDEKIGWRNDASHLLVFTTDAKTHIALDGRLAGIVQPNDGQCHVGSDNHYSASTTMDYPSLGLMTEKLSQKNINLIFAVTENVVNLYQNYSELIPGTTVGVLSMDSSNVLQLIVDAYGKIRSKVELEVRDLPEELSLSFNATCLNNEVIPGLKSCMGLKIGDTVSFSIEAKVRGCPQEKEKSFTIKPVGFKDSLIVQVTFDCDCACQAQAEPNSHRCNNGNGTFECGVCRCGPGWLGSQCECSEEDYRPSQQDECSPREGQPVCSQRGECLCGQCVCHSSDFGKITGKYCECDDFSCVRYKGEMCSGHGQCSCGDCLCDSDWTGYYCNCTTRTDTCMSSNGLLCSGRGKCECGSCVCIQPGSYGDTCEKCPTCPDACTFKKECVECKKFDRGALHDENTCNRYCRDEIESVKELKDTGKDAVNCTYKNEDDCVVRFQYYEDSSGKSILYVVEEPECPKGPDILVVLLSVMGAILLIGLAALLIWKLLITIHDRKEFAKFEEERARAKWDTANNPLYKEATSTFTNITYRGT

Kd (read-out: Kd)	Compound	Kd
–	CC(C)[C@@H](O)CC[C@@H](C)[C@H]1CC[C@H]2[C@@H]3CC=C4C[C@@H](O)CC[C@]4(C)[C@H]3CC[C@]12C [24HC, 24-(S)-hydroxycholesterol]	151 nM
56.6 nM	C[C@H](CCCC(C)(C)O)[C@H]1CC[C@H]2[C@@H]3CC=C4C[C@@H](O)CC[C@]4(C)[C@H]3CC[C@]12C [25HC, 25-hydroxycholesterol]	–
